Paper PMC6546350 (RNA Biology, 2019)

Target: T1, RlmJ (Escherichia coli, UniProt P37634)
T1 sequence (P37634 1-280): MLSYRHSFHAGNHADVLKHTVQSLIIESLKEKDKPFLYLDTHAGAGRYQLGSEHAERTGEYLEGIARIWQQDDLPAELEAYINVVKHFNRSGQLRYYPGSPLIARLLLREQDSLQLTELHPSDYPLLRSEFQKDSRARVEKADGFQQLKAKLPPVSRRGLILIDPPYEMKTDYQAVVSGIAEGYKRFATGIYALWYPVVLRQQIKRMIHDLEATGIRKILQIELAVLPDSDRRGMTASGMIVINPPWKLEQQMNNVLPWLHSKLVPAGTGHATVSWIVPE
Test: ITC and DSF
Type: binding

Kd: 1700 ± 200 nM
Compound: Nc1ncnc2c1ncn2[C@@H]1O[C@H](C[C@@H](N)CC[C@H](N)C(=O)O)[C@@H](O)[C@H]1O [sinefungin]
